# Experimental data taken from PMC10609854 (Pharmaceuticals, 2023).
# pIC50: −log10 of the molar value.
# Key:
# [1] = system: carrageenan-induced edema; test: carrageenan-induced paw edema; assay type: in vivo; settings: rats, 30 mg/kg
# Method: (§1) The acute, local inflammation and paw edema was induced by subplantar injection of 0.1 mL of 1% carrageenan (made in PBS) into the rat right hind paw. The paw volume was measured using the dislocation of the water column of the plethysmometer (Plethysmometr 7140, Ugo Basile) before and at 1, 2, and 3 h after subplantar injection of carrageenan.
# [2] = system: carrageenan-induced thermal hyperalgesia; test: carrageenan-induced thermal hyperalgesia (plantar test); assay type: in vivo; settings: rats
# Method: as §1
# To evaluate the heightened sensitivity to thermal stimuli, we employed a plantar test apparatus (Commat Ltd., Ankara, Turkey). Rats were individually placed in plexiglass chambers and allowed to acclimatize for 20 to 30 min before testing. A radiant heat source was positioned beneath the chamber floor, directly under the hind paw. The time it took for the paw to withdraw in response to the heat was automatically recorded by a photocell and an electronic timer. The intensity of the radiant heat was adjusted to achieve baseline withdrawal times of 10–15 s, and a preset cut-off time of 30 s was established to prevent tissue damage. […] Three successive applications of the heating stimulus were performed, with 1- to 2-minute intervals between them, and the mean of these measurements was calculated. Paw withdrawal latency was recorded for each animal before carrageenan administration and at 1, 2, and 3 h afterward.
# CQ-induced pruritus = test: chloroquine (CQ)-induced pruritus; assay type: in vivo, mice; settings: mice, 2.5, 5, 10 and 15 mg/kg i.p.; 30 min observation
# Method: The area (around 2 cm^2) of the nape of mice was shaved at least 2 days prior to experiments. On the day of the experiment, each mouse was individually placed in plastic chambers (15 × 15 × 30 cm). After the 30 min period of habituation, the mice received an intradermal (i.d.) injection of histamine dihydrochloride (10 µmol/site), chloroquine (CQ, 200 µg/site), or SLIGRL-NH2 (40 nmol/site), which were dissolved in physiological saline and administrated at the constant volume of 20 μL. Immediately following the injection, scratching (series of movements considered as a single scratching bout usually consisted of three single scratches) of the injected site by the hind paw was counted for 60 min, 30 min, or 45 min after histamine, CQ, and SLIGRL-NH2 injection, respectively.
# H3R = system: H3R; parameters: method as in PMID 28797771; settings: read-out: IC50, cAMP accumulation assay (H3R antagonist potency); cited from earlier work
smiles,measurement,setting,value
"O=C(O)C(=O)O.c1ccc(-c2ccc(OCCCCCN3CCCCCC3)cc2)cc1 [Compound E153, 1-(5-(4-Phenylphenoxy)pentyl)azepane hydrogen oxalate]","paw volume increase, carrageenan edema","[1]; 1 h after carrageenan, vehicle 51.1%",27.1%
same,"paw volume increase, carrageenan edema","[1]; 2 h after carrageenan, vehicle 102.4%",45.4%
same,"paw volume increase, carrageenan edema","[1]; 3 h after carrageenan, vehicle 123.5%",42.6%
same,"paw withdrawal latency (thermal), % of baseline","[2]; 15 mg/kg, 1 h after carrageenan",100.8%
same,"paw withdrawal latency (thermal), % of baseline","[2]; 15 mg/kg, 2 h after carrageenan",122.6%
same,"paw withdrawal latency (thermal), % of baseline","[2]; 15 mg/kg, 3 h after carrageenan",122.6%
same,"paw withdrawal latency (thermal), % of baseline","[2]; 30 mg/kg, 1 h after carrageenan",130.3%
same,"paw withdrawal latency (thermal), % of baseline","[2]; 30 mg/kg, 2 h after carrageenan",114.8%
same,"paw withdrawal latency (thermal), % of baseline","[2]; 30 mg/kg, 3 h after carrageenan",126.6%
same,"number of scratch bouts, CQ-induced pruritus",CQ-induced pruritus,significantly decreased
same,pIC50,H3R,8.05
